Patent US20250324969A1

Legend:
[1] = tested on: ACE (acetylcholinesterase) of sensitive mosquitoes; settings: 10 microliters insecticide solution (10^-2 M), 15 min at ambient temperature, optical density over 10 min
Description: (§1) The differences in the properties of the ACE (acetylcholinesterase) between mosquitoes that have this form of resistance and sensitive mosquitoes can be detected using the following test: • Experimental protocol TESTS No.-1: Sensitive and resistant mosquitoes.
(§2) 1° the mosquito (or larva) is crushed and the crushed material is homogenized in an Eppendorf tube with a buffer solution (20 mM tris, pH 7, containing 1% of Triton X-100). After centrifugation at 10,000 g for 2 minutes, the supernatant (which contains the ACE) is collected and distributed in the wells (A) and (B) of a microplate (100 microliters in each well),
(§3) Johnson in well (B), and 10 microliters of alcohol, in well (A). The microplate is left for 15 min at ambient temperature (which is sufficient to allow the action, if any, of the insecticide),
(§4) 3°determination of the catalytic activity of the ACE (acetylcholinesterase): in each well is added 100 microliters of a solution containing acetylcholine (2.5 mM) and 0.2 mM of DTNB (dinitro-2-benzoic). The intensity of the coloration is assessed by measuring the optical density (the optical density increases based on the coloration) If the enzyme is active, the products of the hydrolysis of the acetylcholine react with the DTNB to produce a substance that features an absorption peak for the radiations of 412 nm. It is therefore possible to follow the reaction by spectrophotometry. […]

[2] = tested on: ACE (acetylcholinesterase) of resistant mosquitoes; settings: 10 microliters insecticide solution (10^-2 M), 15 min at ambient temperature, optical density over 10 min
Description: as §1, §2, §3, §4

[3] = tested on: Culex quinquefasciatus; settings: J. Med. Entomol. 41 (4) (2004); cited from earlier work
[4] = tested on: Anopheles gambiae; settings: J. Med. Entomol. 41 (4) (2004); cited from earlier work
[5] = tested on: VKPR mosquito strain (also called VKPER) of Anopheles gambiae; settings: VKPR strain with mutation for knockdown resistance to pyrethroids; cited from earlier work
[6] = tested on: Aedes aegypti; settings: J. Med. Entomol. 41 (4) (2004); cited from earlier work

In the case of `CNC(=O)Oc1ccccc1OC(C)C` [Propoxur], the “Effect of the insecticide on ACE catalytic activity (evolution of the optical density, insecticide well (B) vs control well (A))” value [1] is reported as “insufficient to prevent the Propoxur insecticide (Baygon) from working” and the “Effect of the insecticide on ACE catalytic activity (evolution of the optical density, insecticide well (B) vs control well (A))” value [2] is reported as “completely resistant”.
In the case of `CN/C(=N/CC1CCOC1)N[N+](=O)[O-]` (stereo not drawn) [Dinotefuran], the Effect on mosquitoes [3] is given as “lethal effect”, the Effect on mosquitoes [4] is given as “lethal effect” and the Effect on mosquitoes [5] is given as “lethal effect”. For the same compound, the Effect on mosquitoes [6] was “lethal effect”.
